{"source": "paper PMC10354740", "about": "(Journal of medicinal chemistry, 2022)", "key": {"hA3AR [1]": {"target": "T1, hA3AR (Homo sapiens, UniProt P0DMS8)", "T1 sequence (P0DMS8 1-318)": "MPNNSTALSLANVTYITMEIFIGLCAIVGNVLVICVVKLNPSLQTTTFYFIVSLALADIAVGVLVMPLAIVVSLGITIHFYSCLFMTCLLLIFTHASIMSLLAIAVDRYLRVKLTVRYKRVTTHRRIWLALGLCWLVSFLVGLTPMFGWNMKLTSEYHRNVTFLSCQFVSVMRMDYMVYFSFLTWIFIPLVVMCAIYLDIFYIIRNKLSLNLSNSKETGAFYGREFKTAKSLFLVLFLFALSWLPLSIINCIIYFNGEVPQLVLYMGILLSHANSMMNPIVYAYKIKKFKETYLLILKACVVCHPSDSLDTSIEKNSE", "settings": "for effect on agonist 52 potency: modulator 1 μM (30–34: 0.1 and 1.0 μM), compared to control; for enhancement of agonist efficacy at 0.1 μM: modulator 0.1 μM"}, "CYP2C9": {"target": "CYP2C9 (Homo sapiens, UniProt P11712)", "sequence (P11712 whole entry)": "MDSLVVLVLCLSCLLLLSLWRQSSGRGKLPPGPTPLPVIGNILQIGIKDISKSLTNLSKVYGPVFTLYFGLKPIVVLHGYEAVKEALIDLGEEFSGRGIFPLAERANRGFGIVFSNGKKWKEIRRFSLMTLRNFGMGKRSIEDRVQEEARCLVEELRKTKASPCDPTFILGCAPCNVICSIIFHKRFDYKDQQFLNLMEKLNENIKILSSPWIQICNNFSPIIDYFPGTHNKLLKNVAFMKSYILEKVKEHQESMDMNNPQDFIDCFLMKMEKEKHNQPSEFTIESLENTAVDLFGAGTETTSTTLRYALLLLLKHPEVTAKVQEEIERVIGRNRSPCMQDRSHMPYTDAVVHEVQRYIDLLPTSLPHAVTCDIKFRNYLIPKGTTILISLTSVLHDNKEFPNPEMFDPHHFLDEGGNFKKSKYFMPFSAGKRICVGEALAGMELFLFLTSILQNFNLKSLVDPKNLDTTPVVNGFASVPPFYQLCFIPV", "experiment": "CYP inhibition"}, "hA3AR [2]": {"target": "T1, hA3AR", "settings": "modulator 10 μM; 100 μM 51 added; control 26%"}, "hA3AR [3]": {"target": "T1, hA3AR", "settings": "modulator 0.1 μM; cited from earlier work"}, "[4]": {"experiment": "Plasma protein binding, human", "settings": "pH 7.4"}, "[5]": {"experiment": "Pharmacokinetics in fasted Wistar rats", "type": "in vivo", "settings": "rat"}, "Caco-2 cells": {"system": "Caco-2 cells", "experiment": "Caco-2 cell permeability assay", "type": "in vitro ADME, human"}, "[6]": {"experiment": "pION aqueous solubility pH 7.4", "type": "physicochemical", "settings": "pION buffer"}, "hA2A AR": {"target": "hA2A AR (Homo sapiens, UniProt P29274)", "sequence (P29274 whole entry)": "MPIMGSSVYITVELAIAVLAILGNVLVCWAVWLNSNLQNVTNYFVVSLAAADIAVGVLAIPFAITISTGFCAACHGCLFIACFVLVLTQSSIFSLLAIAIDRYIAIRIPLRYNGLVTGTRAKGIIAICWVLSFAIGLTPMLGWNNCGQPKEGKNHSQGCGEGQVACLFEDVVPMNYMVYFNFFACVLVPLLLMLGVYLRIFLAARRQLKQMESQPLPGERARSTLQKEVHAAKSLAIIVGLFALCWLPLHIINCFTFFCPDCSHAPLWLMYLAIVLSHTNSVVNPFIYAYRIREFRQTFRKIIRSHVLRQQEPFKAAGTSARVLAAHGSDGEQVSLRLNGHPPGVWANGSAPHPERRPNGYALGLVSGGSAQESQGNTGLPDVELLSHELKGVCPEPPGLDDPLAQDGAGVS", "experiment": "Orthosteric antagonist radioligand binding", "settings": "concentrations as high as 10 μM"}, "hA1 AR": {"target": "T2, hA1 AR (Homo sapiens, UniProt P30542)", "T2 sequence (P30542 1-326)": "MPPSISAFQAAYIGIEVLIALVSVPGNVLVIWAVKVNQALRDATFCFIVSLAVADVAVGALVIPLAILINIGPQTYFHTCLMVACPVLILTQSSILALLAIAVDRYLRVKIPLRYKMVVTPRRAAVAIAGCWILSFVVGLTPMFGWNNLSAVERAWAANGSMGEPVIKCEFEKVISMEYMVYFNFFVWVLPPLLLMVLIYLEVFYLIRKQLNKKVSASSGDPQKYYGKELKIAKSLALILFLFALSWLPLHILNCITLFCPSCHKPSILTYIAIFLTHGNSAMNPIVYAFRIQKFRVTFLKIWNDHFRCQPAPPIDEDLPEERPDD", "experiment": "Orthosteric antagonist radioligand binding", "settings": "concentrations as high as 10 μM"}, "hA2B AR": {"target": "T3, hA2B AR (Homo sapiens, UniProt P29275)", "T3 sequence (P29275 1-332)": "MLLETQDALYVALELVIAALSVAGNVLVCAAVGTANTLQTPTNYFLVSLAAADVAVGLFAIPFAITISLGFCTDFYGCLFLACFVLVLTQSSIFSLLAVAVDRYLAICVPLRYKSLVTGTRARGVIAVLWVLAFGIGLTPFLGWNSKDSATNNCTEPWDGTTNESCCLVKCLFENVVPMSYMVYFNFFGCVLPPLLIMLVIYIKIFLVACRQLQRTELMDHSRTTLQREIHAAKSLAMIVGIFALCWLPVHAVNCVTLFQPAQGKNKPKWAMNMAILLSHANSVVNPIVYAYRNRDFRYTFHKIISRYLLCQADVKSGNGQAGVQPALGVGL", "experiment": "Orthosteric antagonist radioligand binding", "settings": "concentrations as high as 10 μM"}}, "note": "Read-outs that look alike come from different tables or passages of the source."}
{"smiles": "Clc1ccc(Nc2nc3ccccc3c3[nH]c(C45CCCC(CCC4)C5)nc23)cc1Cl", "note": "[Compound 26, 2-(Bicyclo[3.3.1]nonan-1-yl)-N-(3,4-dichlorophenyl)-1H-imidazo[4,5-c]quinolin-4-amine]", "values": [{"measurement": "effect on agonist 52 potency", "setting": "hA3AR [1]", "value": "neither 12b nor 26 significantly improved agonist potency"}]}
{"smiles": "Clc1ccc(Nc2nc3ccccc3c3[nH]c(C45CC6CC(CC(C6)C4)C5)nc23)cc1Cl", "note": "[Compound 12b]", "values": [{"measurement": "enhancement of agonist efficacy at 0.1 μM", "setting": "hA3AR [1]", "value": "significantly enhanced agonist efficacy"}, {"measurement": "fold increase of agonist efficacy", "setting": "hA3AR [1]; modulator 1 μM", "value": "approximately 2 fold"}, {"measurement": "fold improvement of agonist potency", "setting": "hA3AR [1]; modulator 1.0 μM, P = 0.058", "value": "~4", "unit": "fold"}]}
{"smiles": "FC(F)(F)[C@H]1CC[C@H](c2nc3c(Nc4ccc(Cl)c(Cl)c4)nc4ccccc4c3[nH]2)CC1", "note": "[Compound 16, 2-(4-(Trifluoromethyl)cyclohexyl)-N-(3,4-dichlorophenyl)-1H-imidazo[4,5-c]quinolin-4-amine]", "values": [{"measurement": "enhancement of agonist efficacy at 0.1 μM", "setting": "hA3AR [1]", "value": "significantly enhanced agonist efficacy"}, {"measurement": "effect on agonist 52 potency", "setting": "hA3AR [1]", "value": "did not influence agonist potency"}]}
{"smiles": "Clc1ccc(Nc2nc3ccccc3c3[nH]c([C@@H]4C[C@@H]5CCC[C@@H](C5)C4)nc23)cc1Cl", "note": "[Compound 27, 2-((1R,3s,5S)-Bicyclo[3.3.1]nonan-3-yl)-N-(3,4-dichlorophenyl)-1H-imidazo[4,5-c]quinolin-4-amine]", "values": [{"measurement": "enhancement of agonist efficacy at 0.1 μM", "setting": "hA3AR [1]", "value": "significantly enhanced agonist efficacy"}]}
{"smiles": "Clc1ccc(COC(Cn2ccnc2)c2ccc(Cl)cc2Cl)c(Cl)c1", "note": "(centres unmarked) [Miconazole]", "values": [{"measurement": "IC50", "setting": "CYP2C9", "value": 380, "unit": "nM"}]}
{"smiles": "FC(F)(F)CCC(CCC(F)(F)F)c1nc2c(Nc3ccc(Cl)c(Cl)c3)nc3ccccc3c2[nH]1", "note": "[Compound 15, 2-(1,1,1,7,7,7-Hexafluoroheptan-4-yl)-N-(3,4-dichlorophenyl)-1H-imidazo[4,5-c]quinolin-4-amine]", "values": [{"measurement": "radioligand [125I]50 remaining bound 60 min after initiation of dissociation", "setting": "hA3AR [2]", "value": "did not slow agonist dissociation"}, {"measurement": "effect on agonist 52 potency", "setting": "hA3AR [1]", "value": "did not influence agonist potency"}]}
{"smiles": "Clc1ccc(Nc2nc3ccccc3c3nc(C4CCCCC4)[nH]c23)cc1Cl", "note": "[Compound 7, N-(3,4-dichloro-phenyl)-2-cyclohexyl-1H-imidazo[4,5-c]quinolin-4-amine]", "values": [{"measurement": "enhancement of agonist efficacy at 0.1 μM", "setting": "hA3AR [3]", "value": "significantly enhanced agonist efficacy"}]}
{"smiles": "CC(=O)CC(c1ccccc1)c1c(O)c2ccccc2oc1=O", "note": "(centres unmarked) [Warfarin]", "values": [{"measurement": "fraction unbound at 5 h, 10 μM", "setting": "[4]", "value": 0.037}]}
{"smiles": "Clc1ccc(Nc2nc3ccccc3c3[nH]c([C@@H]4CC[C@@H]5C[C@@H]5CC4)nc23)cc1Cl", "note": "[Compound 28, 2-((1R,4r,7S)-bicyclo[5.1.0]octan-4-yl)-N-(3,4-dichlorophenyl)-1H-imidazo[4,5-c]quinolin-4-amine]", "values": [{"measurement": "radioligand [125I]50 remaining bound 60 min after initiation of dissociation", "setting": "hA3AR [2]", "value": "slowed agonist radioligand dissociation"}, {"measurement": "fold increase of agonist efficacy", "setting": "hA3AR [1]; modulator 1 μM", "value": "approximately 2 fold"}]}
{"smiles": "Clc1ccc(Nc2nc3ccccc3c3[nH]c(C45CCC(CC4)C5)nc23)cc1Cl", "note": "[Compound 25, 2-(Bicyclo[2.2.1]heptan-1-yl)-N-(3,4-dichlorophenyl)-1H-imidazo[4,5-c]quinolin-4-amine]", "values": [{"measurement": "fold decrease in agonist potency compared to control", "setting": "hA3AR [1]; modulator 1 μM, P = 0.0257", "value": 4, "unit": "fold"}]}
{"smiles": "Clc1ccc(Nc2nc3ccccc3c3[nH]c(C4CCC=CCC4)nc23)cc1Cl", "note": "[Compound 18, 2-(Cyclohept-4-en-1-yl)-N-(3,4-dichlorophenyl)-1H-imidazo[4,5-c]quinolin-4-amine]", "values": [{"measurement": "Cmax", "setting": "[5]; male, Wistar (RccHan:WIST), plasma, po, 10 mg/kg", "value": 4.2, "unit": "µM"}, {"measurement": "clearance rate from plasma", "setting": "[5]; 1 mg/kg p.o.", "value": 7.45, "unit": "mL/min/kg"}, {"measurement": "clearance rate from plasma", "setting": "[5]; 3 mg/kg p.o.", "value": 26.33, "unit": "mL/min/kg"}, {"measurement": "clearance rate from plasma", "setting": "[5]; 10 mg/kg p.o.", "value": 16.2, "unit": "mL/min/kg"}, {"measurement": "Caco-2 permeability (Papp) apical to basolateral (A to B)", "setting": "Caco-2 cells; 10 μM", "value": "no measurable permeability"}, {"measurement": "Caco-2 permeability (Papp) basolateral to apical (B to A)", "setting": "Caco-2 cells; 10 μM", "value": "no measurable permeability"}, {"measurement": "Caco-2 permeability classification", "setting": "Caco-2 cells; A-B and B-A", "value": "low A-B and B-A permeability"}, {"measurement": "solubility at 18 h", "setting": "[6]", "value": 0.92, "unit": "µM"}]}
{"smiles": "Clc1ccc(Nc2nc3ccccc3c3[nH]c(C4CC4)nc23)cc1Cl", "note": "[Compound 17, 2-(Cyclopropyl)-N-(3,4-dichlorophenyl)-1H-imidazo[4,5-c]quinolin-4-amine]", "values": [{"measurement": "inhibition of orthosteric antagonist binding at hA2A AR", "setting": "hA2A AR", "value": "did not inhibit orthosteric antagonist binding"}, {"measurement": "inhibition of orthosteric antagonist binding at hA1 AR", "setting": "hA1 AR", "value": "did not inhibit orthosteric antagonist binding"}, {"measurement": "inhibition of orthosteric antagonist binding at hA2B AR", "setting": "hA2B AR", "value": "did not inhibit orthosteric antagonist binding"}]}
{"smiles": "Clc1ccc(Nc2nc3ccccc3c3[nH]c(C4CC5C=CC4CC5)nc23)cc1Cl", "note": "[Compound 29, 2-((1R,2R,4R)- and (1S,2S,4S))-Bicyclo[2.2.2]oct-5-en-2-yl)-N-(3,4-dichlorophenyl)-1H-imidazo[4,5-c]quinolin-4-amine]", "values": [{"measurement": "effect on agonist EC50 over modulator concentrations", "setting": "hA3AR [1]; concentration-dependent", "value": "significantly decreasing the potency in a concentration-dependent manner"}, {"measurement": "effect on agonist 52 potency", "setting": "hA3AR [1]", "value": "did not influence agonist potency"}]}
{"smiles": "Clc1ccc(Nc2nc3ccccc3c3[nH]c(C4CCCCCC4)nc23)cc1Cl", "note": "[Compound 8]", "values": [{"measurement": "enhancement of agonist efficacy at 0.1 μM", "setting": "hA3AR [3]", "value": "significantly enhanced agonist efficacy"}]}
